In BindingDB's records for doi:10.1021/jm00098a013 (Duquesne University, 1992):

Test: Compound was evaluated for the inhibition of Aminoimidazole carboxamide ribonucleotide formyl transferase (AICAR) with (6R) tetrahydrofolate as substrate

Question: With `Cc1c2cnc3nc(N)[nH]c(=O)c3c2c(C)n1C` as the compound, how does the IC50 read?
Answer: Its IC50 is > 95 µM.
